Assay results: patent publication US20080200461A1, “MODULATORS OF ACETYL-COENZYME A CARBOXYLASE AND METHODS OF USE THEREOF” (Cropsolution, Inc., priority 2007, published 2008)
Like-named read-outs stand apart in the source and are kept apart here.

Experiments:
Septoria tritici = test: Fungicidal activity, microtiter plate agar growth assay; type: cell-based; conditions: Zymoseptoria tritici, read-out: In vivo IC50 S. tritici
Phytophthora infestans = test: microbe, parasite or virus in culture; type: cell-based; conditions: read-out: In vivo IC50 P. infestens
Ustilago maydis ACC = Ustilago maydis ACC (Mycosarcoma maydis, UniProt A0A0D1DYD5); test: biochemical; type: biochemical
Ustilago maydis ACC, sequence (A0A0D1DYD5 entry or part of it): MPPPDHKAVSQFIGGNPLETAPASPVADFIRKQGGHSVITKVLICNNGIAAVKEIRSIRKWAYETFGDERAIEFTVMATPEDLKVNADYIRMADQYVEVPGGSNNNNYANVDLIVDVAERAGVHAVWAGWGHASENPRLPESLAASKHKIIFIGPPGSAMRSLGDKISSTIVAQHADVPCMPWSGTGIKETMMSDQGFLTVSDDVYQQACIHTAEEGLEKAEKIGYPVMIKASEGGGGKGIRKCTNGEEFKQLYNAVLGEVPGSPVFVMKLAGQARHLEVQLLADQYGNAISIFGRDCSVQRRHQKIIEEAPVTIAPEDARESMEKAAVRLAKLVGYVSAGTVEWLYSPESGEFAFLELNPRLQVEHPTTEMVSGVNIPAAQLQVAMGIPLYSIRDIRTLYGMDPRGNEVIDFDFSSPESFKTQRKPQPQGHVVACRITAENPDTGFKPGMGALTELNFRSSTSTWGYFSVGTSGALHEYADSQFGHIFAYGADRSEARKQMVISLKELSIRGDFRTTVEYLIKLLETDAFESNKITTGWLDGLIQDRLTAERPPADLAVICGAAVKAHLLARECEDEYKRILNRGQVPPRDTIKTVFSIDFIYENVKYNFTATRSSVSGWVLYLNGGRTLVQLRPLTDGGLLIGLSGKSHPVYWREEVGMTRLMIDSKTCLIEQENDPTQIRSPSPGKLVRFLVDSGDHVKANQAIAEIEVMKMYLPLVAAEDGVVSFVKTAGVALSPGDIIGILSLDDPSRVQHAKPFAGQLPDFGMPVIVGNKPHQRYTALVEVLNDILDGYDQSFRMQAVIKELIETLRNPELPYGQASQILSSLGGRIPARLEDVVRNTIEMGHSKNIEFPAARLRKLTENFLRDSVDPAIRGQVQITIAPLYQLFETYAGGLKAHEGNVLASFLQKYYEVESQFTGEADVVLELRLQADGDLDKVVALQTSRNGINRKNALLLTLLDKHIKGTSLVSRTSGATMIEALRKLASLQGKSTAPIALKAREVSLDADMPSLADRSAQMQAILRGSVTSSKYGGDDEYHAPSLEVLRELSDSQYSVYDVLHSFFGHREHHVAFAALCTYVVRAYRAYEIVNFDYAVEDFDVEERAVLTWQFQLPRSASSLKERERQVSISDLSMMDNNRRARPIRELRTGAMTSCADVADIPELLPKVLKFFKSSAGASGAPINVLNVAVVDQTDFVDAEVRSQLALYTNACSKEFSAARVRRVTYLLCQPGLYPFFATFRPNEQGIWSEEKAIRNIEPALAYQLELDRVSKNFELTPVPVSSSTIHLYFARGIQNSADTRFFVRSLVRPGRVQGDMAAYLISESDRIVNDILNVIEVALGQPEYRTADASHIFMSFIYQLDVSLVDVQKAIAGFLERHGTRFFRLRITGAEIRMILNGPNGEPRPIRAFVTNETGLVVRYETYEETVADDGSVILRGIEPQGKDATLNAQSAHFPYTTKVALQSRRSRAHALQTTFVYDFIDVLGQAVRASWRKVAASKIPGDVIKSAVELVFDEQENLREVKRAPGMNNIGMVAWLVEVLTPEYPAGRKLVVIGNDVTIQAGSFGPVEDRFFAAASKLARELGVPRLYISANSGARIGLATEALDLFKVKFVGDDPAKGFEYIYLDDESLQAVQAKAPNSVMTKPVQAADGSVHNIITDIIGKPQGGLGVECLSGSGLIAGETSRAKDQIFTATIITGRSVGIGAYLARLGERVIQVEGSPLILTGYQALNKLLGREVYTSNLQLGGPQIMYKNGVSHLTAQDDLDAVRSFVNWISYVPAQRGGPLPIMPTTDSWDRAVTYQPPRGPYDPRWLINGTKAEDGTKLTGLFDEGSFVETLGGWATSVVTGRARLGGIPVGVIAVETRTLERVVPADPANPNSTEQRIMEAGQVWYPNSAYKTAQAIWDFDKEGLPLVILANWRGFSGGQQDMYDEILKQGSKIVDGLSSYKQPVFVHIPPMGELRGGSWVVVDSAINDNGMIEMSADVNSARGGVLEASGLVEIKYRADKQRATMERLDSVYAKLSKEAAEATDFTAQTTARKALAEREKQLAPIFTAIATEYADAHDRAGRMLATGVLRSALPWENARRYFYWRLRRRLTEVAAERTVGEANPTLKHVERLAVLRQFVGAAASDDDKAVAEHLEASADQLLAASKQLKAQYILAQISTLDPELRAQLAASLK

Stagonospora nodorum = test: Fungicidal activity, microtiter plate agar growth assay; type: cell-based; conditions: Parastagonospora nodorum, read-out: In vivo IC50 S. nodorum
Botrytis cinerea = test: as above; type: cell-based; conditions: read-out: In vivo IC50 B. cinerea
yeast wt BC domain = yeast wt BC domain (Saccharomyces cerevisiae, UniProt Q00955); test: Tryptophan fluorescence binding assay; conditions: for EC50: protein concentration = 200 nM
yeast wt BC domain, sequence (Q00955 58-567): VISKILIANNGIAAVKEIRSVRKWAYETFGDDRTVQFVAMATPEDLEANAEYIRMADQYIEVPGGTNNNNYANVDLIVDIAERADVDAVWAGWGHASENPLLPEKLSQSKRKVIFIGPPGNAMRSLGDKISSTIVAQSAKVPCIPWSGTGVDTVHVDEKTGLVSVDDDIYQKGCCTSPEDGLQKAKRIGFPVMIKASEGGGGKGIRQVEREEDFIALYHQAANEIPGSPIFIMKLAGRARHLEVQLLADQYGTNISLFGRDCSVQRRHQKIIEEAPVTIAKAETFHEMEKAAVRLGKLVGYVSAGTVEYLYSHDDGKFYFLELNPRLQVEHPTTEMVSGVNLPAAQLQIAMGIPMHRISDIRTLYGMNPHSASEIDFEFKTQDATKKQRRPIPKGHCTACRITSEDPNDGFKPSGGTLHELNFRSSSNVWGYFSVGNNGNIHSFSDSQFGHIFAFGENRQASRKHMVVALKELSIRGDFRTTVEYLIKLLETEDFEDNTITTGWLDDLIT
Description: The soraphen binding pocket contains a tryptophan residue. Thus, tryptophan fluorescence may be used to directly monitor binding of a ligand to this site. […] We conducted a similar assay in a 96-well format. Briefly, 200 nM protein in 100 mM Tris pH 8 containing 100 mM NaCl and 0.01% Tween 20 (v/v) was incubated in the presence of various amounts of test compounds dissolved in DMSO (1% v/v final concentration). Tryptophan fluorescence at […] was measured in a Pherastar plate reader (BMG Labtech) using 280 nm excitation.

Ustilago maydis K53R ACC = Ustilago maydis K53R ACC (Mycosarcoma maydis, UniProt A0A0D1DYD5, K53R); test: biochemical; type: biochemical; conditions: K53R mutation that confers resistance to soraphen
rat liver ACC [1] = molecular target: T1, rat liver ACC (Rattus norvegicus, UniProt P11497); test: Rat liver ACC activity, [14C]bicarbonate incorporation; type: biochemical
Excerpt: (§1) To test the effect of compounds against mammalian ACC both human and rat enzyme preparations were employed. ACC was purified from rat liver according to published protocols (Rubink and Winder, J Appl Physiol 98, 1221-1227 (2005); Trumble et al., Eur J Biochem 231, 192-198 (1995)). Rat liver contains both ACC1 and ACC2 in a ˜85:15 ratio, respectively (Harwood et al., J Biol Chem 278, 37099-37111 (2003)).

hACC1 = molecular target: T2, hACC1 (Homo sapiens, UniProt Q13085); test: Recombinant human ACC1 activity, [14C]bicarbonate incorporation; type: biochemical; conditions: Table II; read-out: Enzyme Activity IC50 Human ACC1
T2 construct: we cloned full-length cDNAs for both the human isoforms (hACC1 and hACC2); His tag (from pET30a) (C); made in house; host or cells: sf9 insect cells (baculovirus)

hACC2 = molecular target: T3, hACC2 (Homo sapiens, UniProt O00763); test: Recombinant human ACC2 activity, [14C]bicarbonate incorporation; type: biochemical; conditions: Table II; read-out: Enzyme Activity IC50 Human ACC2
T3 construct: delete amino acids 1-148 and add Met-Gly in front of Lys149 in the final product; His tag (from pET30a) (C); made in house; host or cells: sf9 insect cells (baculovirus)
T3 sequence (O00763 with tags, fused parts or gaps): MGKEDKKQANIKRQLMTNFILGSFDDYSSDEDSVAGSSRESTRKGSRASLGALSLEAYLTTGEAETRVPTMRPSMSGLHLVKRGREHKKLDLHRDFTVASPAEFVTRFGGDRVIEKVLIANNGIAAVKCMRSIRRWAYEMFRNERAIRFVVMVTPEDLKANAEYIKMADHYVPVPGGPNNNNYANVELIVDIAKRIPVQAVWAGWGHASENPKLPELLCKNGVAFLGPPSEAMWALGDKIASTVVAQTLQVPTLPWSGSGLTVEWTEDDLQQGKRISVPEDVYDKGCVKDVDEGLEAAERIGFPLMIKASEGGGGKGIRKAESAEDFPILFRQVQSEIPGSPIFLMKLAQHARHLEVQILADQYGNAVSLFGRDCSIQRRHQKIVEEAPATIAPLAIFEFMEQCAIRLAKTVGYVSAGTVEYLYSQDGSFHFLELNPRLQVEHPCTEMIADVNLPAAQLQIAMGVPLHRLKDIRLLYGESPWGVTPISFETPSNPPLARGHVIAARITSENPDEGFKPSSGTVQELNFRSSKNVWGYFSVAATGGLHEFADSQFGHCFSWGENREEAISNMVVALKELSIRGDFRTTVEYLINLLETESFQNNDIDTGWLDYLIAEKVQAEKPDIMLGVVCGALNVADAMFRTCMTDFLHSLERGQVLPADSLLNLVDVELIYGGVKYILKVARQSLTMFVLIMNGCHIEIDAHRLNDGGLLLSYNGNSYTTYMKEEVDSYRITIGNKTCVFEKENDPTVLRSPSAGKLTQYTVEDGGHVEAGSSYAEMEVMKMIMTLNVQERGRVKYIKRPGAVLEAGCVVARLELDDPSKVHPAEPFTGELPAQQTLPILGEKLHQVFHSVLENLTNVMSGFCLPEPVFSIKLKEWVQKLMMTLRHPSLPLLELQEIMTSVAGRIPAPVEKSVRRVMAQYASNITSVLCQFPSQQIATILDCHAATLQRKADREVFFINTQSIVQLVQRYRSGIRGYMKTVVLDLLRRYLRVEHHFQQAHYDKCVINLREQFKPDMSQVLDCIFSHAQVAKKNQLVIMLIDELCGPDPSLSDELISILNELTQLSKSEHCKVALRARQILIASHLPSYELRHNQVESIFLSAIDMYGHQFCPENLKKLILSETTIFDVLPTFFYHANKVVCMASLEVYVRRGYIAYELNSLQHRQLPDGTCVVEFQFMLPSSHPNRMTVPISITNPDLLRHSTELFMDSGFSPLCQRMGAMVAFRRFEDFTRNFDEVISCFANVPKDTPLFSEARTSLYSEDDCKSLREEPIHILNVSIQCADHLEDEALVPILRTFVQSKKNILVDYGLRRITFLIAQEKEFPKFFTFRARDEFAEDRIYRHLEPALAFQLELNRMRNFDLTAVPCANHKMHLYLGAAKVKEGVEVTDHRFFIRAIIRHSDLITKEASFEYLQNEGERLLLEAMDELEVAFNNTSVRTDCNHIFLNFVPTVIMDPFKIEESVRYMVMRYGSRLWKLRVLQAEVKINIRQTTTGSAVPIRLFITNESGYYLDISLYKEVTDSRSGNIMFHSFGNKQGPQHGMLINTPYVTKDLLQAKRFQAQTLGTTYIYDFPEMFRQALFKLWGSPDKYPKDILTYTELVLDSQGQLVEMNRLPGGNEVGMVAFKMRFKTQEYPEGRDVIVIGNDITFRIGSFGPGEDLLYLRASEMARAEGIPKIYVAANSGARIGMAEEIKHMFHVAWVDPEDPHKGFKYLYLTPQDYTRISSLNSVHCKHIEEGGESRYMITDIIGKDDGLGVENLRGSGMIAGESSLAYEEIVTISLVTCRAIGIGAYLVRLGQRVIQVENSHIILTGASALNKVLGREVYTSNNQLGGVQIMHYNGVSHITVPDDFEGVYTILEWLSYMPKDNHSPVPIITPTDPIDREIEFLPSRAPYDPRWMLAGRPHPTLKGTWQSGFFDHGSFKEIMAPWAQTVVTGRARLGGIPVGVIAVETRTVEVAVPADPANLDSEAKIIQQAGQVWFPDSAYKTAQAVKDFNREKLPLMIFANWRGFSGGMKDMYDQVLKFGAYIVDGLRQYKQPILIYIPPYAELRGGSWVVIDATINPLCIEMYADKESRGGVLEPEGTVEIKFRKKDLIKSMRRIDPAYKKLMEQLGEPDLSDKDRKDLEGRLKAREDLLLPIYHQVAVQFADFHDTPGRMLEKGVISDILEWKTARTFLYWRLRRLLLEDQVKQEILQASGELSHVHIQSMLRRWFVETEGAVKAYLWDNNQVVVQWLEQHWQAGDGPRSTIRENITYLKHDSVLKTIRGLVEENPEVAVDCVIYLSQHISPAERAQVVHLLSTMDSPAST

[2] = molecular target: BC domain of eukaryotic ACCs; conditions: literature; cited from earlier work
bacterial BC subunits = conditions: literature; cited from earlier work
rat liver ACC [3] = molecular target: T1, rat liver ACC; test: FP saturation binding assay
Excerpt: as §1

yeast BC domain = yeast BC domain (Saccharomyces cerevisiae, UniProt Q00955); conditions: cited from earlier work
[4] = fungal growth on agar, 20° C., 3-5 days
[5] = Table I, read-out: In vitro IC50 U. maydis ACC activity
[6] = Table II, enzyme concentration 50 nM, read-out: Enzyme Activity IC50 U. maydis ACC
[7] = Table II, enzyme concentration 25 nM, ND = none detected, read-out: Enzyme Activity IC50 Rat liver ACC

| Compound | IC50 (Septoria tritici; [4]) | IC50 (Phytophthora infestans) | IC50 (Ustilago maydis ACC; [5]) | IC50 (Stagonospora nodorum; [4]) | IC50 (Botrytis cinerea; [4]) | IC50 (Ustilago maydis ACC; [6]) | IC50 (hACC1) | IC50 (hACC2) | also measured |
| --- | --- | --- | --- | --- | --- | --- | --- | --- | --- |
| C[N+]1(Cc2ccc(Cl)c(Cl)c2)CCN(CCCn2c(SCc3ccc(Cl)c(Cl)c3)nc3ccc(Br)cc3c2=O)CC1 [Compound 7] | 4.8 µM | 200 µM | 17 µM | 8 µM | 4300 nM | – | – | – | – |
| COc1cc2c(=O)n(CCCC[N+](C)(C)Cc3ccc(Br)cc3)c(=S)n(Cc3ccc(Br)cc3)c2c(OC)c1OC [Compound 15] | 4 µM | 18 µM | 16 µM | 8 µM | 2000 nM | – | – | – | – |
| Cc1cc(C)cc(CN(CCCC[N+](C)(C)Cc2cc(C)cc(C)c2)Cc2cc(C)cc(C)c2)c1 [Compound 19] | 22 µM | 25 µM | 21 µM | 64 µM | 7000 nM | – | – | – | – |
| COc1cc2c(=O)n(CCCC[N+](C)(CCC[N+](C)(C)Cc3cc(C)cc(C)c3)Cc3cc(C)cc(C)c3)c(SCc3cc(C)cc(C)c3)nc2c(OC)c1OC (centres unmarked) [Compound 22] | 4.4 µM | 35 µM | 12 µM | 4.6 µM | 6700 nM | – | – | – | – |
| Cc1cc(C)cc(CN(CC[N+](C)(C)Cc2cc(C)cc(C)c2)Cc2cc(C)cc(C)c2)c1 [Compound 25] | 10 µM | 18.2 µM | 42 µM | 5.8 µM | 1400 nM | – | – | – | – |
| Cc1cc(C)cc(CN(CCC[N+](C)(C)Cc2cc(C)cc(C)c2)Cc2cc(C)cc(C)c2)c1 [Compound 26] | 6 µM | 23.5 µM | 39 µM | 5 µM | 1000 nM | – | – | – | – |
| CC[N+](CC)(CCCCN(Cc1cc(C)cc(C)c1)Cc1cc(C)cc(C)c1)Cc1cc(C)cc(C)c1.[Br-] [Compound 28, Diethyl(3,5-dimethylbenzyl)[bis-(3,5-dimethylbenzyl)aminobutyl]ammonium formate] | – | 21.5 µM | – | – | – | – | – | – | IC50 (Septoria tritici): 11 µM; Effect on tryptophan fluorescence of yeast BC domain (yeast wt BC domain): quenched; EC50 (yeast wt BC domain): 11 µM; Effect of K53R mutation on inhibition of ACC by compound (Ustilago maydis K53R ACC): confers resistance to inhibition; IC50 (Ustilago maydis ACC; Enzyme activity IC50 U. maydis wt ACC): 11 µM; IC50 (Ustilago maydis ACC; In vitro IC50 U. maydis ACC activity): 17 µM; IC50 (Stagonospora nodorum): 7.2 µM; IC50 (Botrytis cinerea): 1800 nM |
| Cc1cc(C)cc(CN(CCCC[N+](C)(C)Cc2cc(C)cc(C)c2)S(=O)(=O)c2ccc(Br)cc2)c1 [Compound 61] | – | – | – | – | – | 9 µM | – | – | – |
| Cc1cc(C)cc(CN(CCCC[N+](C)(C)Cc2cc(C)cc(C)c2)C(=S)Nc2c(F)cccc2F)c1 [Compound 74] | – | – | – | – | – | 9 µM | – | – | – |
| CC[N+](CC)(CCCCN(Cc1cc(C)cc(C)c1)C(=O)c1cc(C)cc(C)c1)Cc1cc(C)cc(C)c1 [Compound 76] | – | – | – | – | – | 30 µM | – | – | – |
| CC[N+](CC)(CCCCN(Cc1cc(C)cc(C)c1)S(=O)(=O)c1ccc2ccccc2c1)Cc1cc(C)cc(C)c1 [Compound 85, Diethyl(3,5-dimethylbenzyl)[N-(3,5-dimethylbenzyl)-2-naphthalenesulfonamidobutyl]ammonium bromide] | – | – | – | – | – | 15 µM | – | – | IC50 (rat liver ACC [1]; [7]): 43 µM |
| CC[N+](CC)(CCCCN(Cc1cc(C)cc(C)c1)C(=O)c1ccc2ccccc2c1)Cc1cc(C)cc(C)c1 [Compound 133, Diethyl(3,5-dimethylbenzyl)[N-(3,5-dimethylbenzyl)-2-naphthalenecarboxamidobutyl]ammonium bromide] | – | – | – | – | – | 3 µM | – | – | – |
| CC[N+](CC)(CCCCN(Cc1ccc2c(c1)OCCO2)S(=O)(=O)c1ccc2ccccc2c1)Cc1cc(C)cc(C)c1.[Br-] [Compound 184] | – | – | – | – | – | – | – | – | Effect of K53R mutation on inhibition of ACC by compound (Ustilago maydis K53R ACC): confers resistance to inhibition |
| CC[N+](CC)(CCCCN(Cc1ccc2ccccc2c1)S(=O)(=O)c1cccc(Cl)c1Cl)Cc1cc(C)cc(C)c1 [Compound 237] | – | – | – | – | – | 1.4 µM | 12000 nM | 50 µM | – |
| CC[N+](CC)(CCCCN(Cc1ccc2ccccc2c1)C(=O)c1cc2cccc(OC)c2cc1OC)Cc1cc(C)cc(C)c1 [Compound 260] | – | – | – | – | – | 1.4 µM | 2800 nM | 11 µM | – |
| CC[N+](CC)(CCCCN(Cc1ccc2ccccc2c1)C(=O)c1sc2cccc(Cl)c2c1Cl)Cc1cc(C)cc(C)c1.[Br-] [Compound 322] | – | – | – | – | – | 0.04 µM | 250 nM | 1 µM | Effect of K53R mutation on inhibition of ACC by compound (Ustilago maydis K53R ACC): confers resistance to inhibition |
| CC[N+](CC)(CCCCN(Cc1ccc2ccccc2c1)C(=O)c1sc2c(Cl)c(OC)ccc2c1Cl)Cc1cc(C)cc(C)c1 [Compound 326] | – | – | – | – | – | 0.18 µM | 150 nM | 1.5 µM | – |
| CO[C@H]1CCCC[C@@H](c2ccccc2)OC(=O)[C@@H](C)[C@@]2(O)O[C@H]([C@@H](C)[C@H](O)[C@H]2OC)[C@@H](C)/C=C/[C@H]1OC [soraphen A, Soraphen A, reference compound] | – | – | – | – | – | 0.017 µM | 11 nM | 0.0027 µM | Kd [2]: ~1 nM; Effect on bacterial BC subunits (bacterial BC subunits): no effect; EC50 (yeast wt BC domain): 0.09 µM; IC50 (Ustilago maydis ACC; Table III, enzyme concentration = 50 nM, read-out: Enzyme activity IC50 U. maydis wt ACC): 0.017 µM; IC50 (Ustilago maydis ACC; read-out: IC50 inhibition of fungal ACC): 0.017 µM; Kd (rat liver ACC [3]): 3.2 nM; Kd (yeast BC domain): 1 nM; IC50 (rat liver ACC [1]; tight binding conditions, nominal enzyme concentration 25 nM, read-out: IC50 rat liver ACC activity): 0.014 µM |
| Diethyl(3,5-dimethylbenzyl)[N-(2-naphthylmethyl)-2-naphthalenesulfonamidobutyl]ammonium bromide [Compound 200] | – | – | – | – | – | 0.56 µM | 7600 nM | 22 µM | IC50 (rat liver ACC [1]; [7]): 11 µM |
